Assay results: patent US4440932A, “7β-Arylalkyl-7α-methyl-6-oxo or 6α-hydroxy-3-methoxy or 3-hydroxy-4,5α-epoxy-17-methyl or 17-cycloalkyl-methylmorphinans” (Miles Laboratories, Inc., priority 1982, dated 1984)
Values joined by “and” are separate entries in the source; they are usually repeats but may differ in a detail not shown here. Equal entries are not always repeated.

system: mice; assay: acetic acid induced writhing test (analgesic effects in mice, subcutaneous); type: in vivo, mice (male CD-1); details: Mus musculus, sc, acetic acid i.p. 15 min post drug, writhes counted over 20 min, read-out: ED50 (dose required to reduce the number of writhes by 50%)
Method: Analgesic effects of the test compounds were determined in mice by use of the acetic acid induced writhing test described by B. A. Whittle, Brit. J. Pharmacol., 22:246 (1964). In this test, at least 3 groups of 5 male CD-1 mice each were given subcutaneous doses of the test drug dissolved in distilled water. In all cases, 0.4 ml of a 0.5% v/v acetic acid in distilled water solution was administered intraperitoneally 15 min. post drug. The number of writhes in a 20 min. interval beginning 5 min. after the acetic acid injection were determined and compared with the number of writhes in a control group which had received only acetic acid.
Percent inhibition of writhing was calculated as: [formula]
The ED50 dose, i.e., the dose required to reduce the number of writhes by 50%, was determined graphically from a plot of % inhibition as a probit verus log dose. Confidence limits of 95% were calculated on the basis of those results falling in the range 16-84% inhibition. See Lichtfield, J. T. and Wilcoxon, F., J. Pharmacol. Exp. Ther., 96, 99-113 (1949).

Question: Which ED50 does the source give for `COc1ccc2c3c1O[C@H]1[C@@H](O)[C@](C)(CCc4ccccc4)C[C@H]4[C@@H](C2)N(CC2CCC2)CC[C@@]341` [BBd] here?
Answer: 1 µmol/kg and 0.51 mg/kg

Question: For `COc1ccc2c3c1O[C@H]1[C@@H](O)[C@](C)(CCCCc4ccccc4)C[C@H]4[C@@H](C2)N(CC2CCC2)CC[C@@]341` [BBf], which ED50 is on record?
Answer: 11.3 µmol/kg and 6.1 mg/kg

Question: With `COc1ccc2c3c1O[C@H]1[C@@H](O)[C@](C)(CCCCc4ccccc4)C[C@H]4[C@@H](C2)N(C)CC[C@@]341` [BMf, 7α,17-Dimethyl-4,5α-epoxy-3-methoxy-7β-(4-phenylbutyl)morphinan-6α-ol] as the compound, how does the ED50 read?
Answer: 0.049 µmol/kg and 0.023 mg/kg

Question: Which ED50 does the source give for `COc1ccc2c3c1O[C@H]1[C@@H](O)[C@](C)(CCCCc4ccccc4)C[C@H]4[C@@H](C2)N(CC2CC2)CC[C@@]341` [BPf] here?
Answer: 0.5 µmol/kg and 0.26 mg/kg

Question: `COc1ccc2c3c1O[C@H]1C(=O)[C@](C)(CCc4ccccc4)C[C@H]4[C@@H](C2)N(CC2CCC2)CC[C@]314` [CBd] was tested. Which ED50 did it give?
Answer: 0.01 µmol/kg and 0.011 mg/kg

Question: `COc1ccc2c3c1O[C@H]1C(=O)[C@](C)(CCCCc4ccccc4)C[C@H]4[C@@H](C2)N(CC2CCC2)CC[C@]314` [CBf] was tested. Which ED50 did it give?
Answer: 5.6 µmol/kg and 2.8 mg/kg

Question: `COc1ccc2c3c1O[C@H]1C(=O)[C@](C)(CCCCc4ccccc4)C[C@H]4[C@@H](C2)N(C)CC[C@]314` [CMf, 7α,17-Dimethyl-4,5α-epoxy-3-methoxy-7β-(4-phenylbutyl)morphinan-6-one] was tested. Which ED50 did it give?
Answer: 0.023 µmol/kg and 0.011 mg/kg

Question: How did the ED50 turn out when `COc1ccc2c3c1O[C@H]1C(=O)[C@](C)(CCCCc4ccccc4)C[C@H]4[C@@H](C2)N(CC2CC2)CC[C@]314` [CPf] was run?
Answer: 2 µmol/kg and 1.1 mg/kg

Question: With `C[C@@]1(CCc2ccccc2)C[C@H]2[C@H]3Cc4ccc(O)c5c4[C@@]2(CCN3CC2CCC2)[C@@H](O5)C1=O` [DBd] as the compound, how does the ED50 read?
Answer: 0.04 µmol/kg and 0.021 mg/kg

Question: How did the ED50 turn out when `C[C@@]1(CCCCc2ccccc2)C[C@H]2[C@H]3Cc4ccc(O)c5c4[C@@]2(CCN3CC2CCC2)[C@@H](O5)C1=O` [DBf] was run?
Answer: 0.17 µmol/kg and 0.08 mg/kg

Question: How did the ED50 turn out when `CN1CC[C@]23c4c5ccc(O)c4O[C@H]2C(=O)[C@](C)(CCCCc2ccccc2)C[C@H]3[C@H]1C5` [DMf, 7α,17-Dimethyl-4,5α-epoxy-3-hydroxy-7β-(4-phenylbutyl)morphinan-6-one] was run?
Answer: 0.01 µmol/kg and 0.0048 mg/kg

Question: `C[C@@]1(CCCCc2ccccc2)C[C@H]2[C@H]3Cc4ccc(O)c5c4[C@@]2(CCN3CC2CC2)[C@@H](O5)C1=O` [DPf] was tested. Which ED50 did it give?
Answer: 0.11 µmol/kg and 0.07 mg/kg
